Data: US20250179059A1 (The Regents of the University of California, priority 2021, published 2025)

Assays:
[1] = target: T1, human BRD4 bromodomain II (Homo sapiens, UniProt O60885); test: Bromodomain binding assay (AlphaScreen), BRD4 BDII; settings: BRD4 BDII AlphaScreen assay; read-out: BRD4 BD2 IC50
T1 construct: human BRD4 bromodomain II [based on Genbank NM_058243, residues 349-460]; host or cells: E. coli
Outline: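 Compounds (10-point, 3-fold series) were preincubated 30 min at room temperature with E. coli-expressed N-terminal His6-tagged BRD4 BDII (residues 349-460) or BDI (residues 44-170) in 50 mM HEPES pH 7.5, 100 mM NaCl, 0.05% CHAPS, 0.1% BSA, 1% DMSO. Displacement of biotinylated tetra-acetylated H4 1-21 peptide was read by AlphaScreen; IC50 from curve fitting.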

[2] = tested on: human SKM-1 acute myeloid leukemia cells; test: SKM-1 antiproliferation cell-based assay (ATPlite)
Outline: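 Log-phase cells in RPMI 1640/15% FBS were seeded at 34722 cells/mL and exposed for 4 days to nine-concentration DMSO serial dilutions in triplicate. Viability was read as ATP luminescence (ATPlite 1step), and IC50 values came from variable-slope non-linear regression.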

[3] = Homo sapiens, SKM-1, SKM-1 antiproliferation assay

| Compound | IC50 [1] [nM] | GI50 [2, 3] [nM] | GI50 ([2]; SKM-1 antiproliferation assay) [nM] |
| --- | --- | --- | --- |
| COc1ncc(-c2cc(F)cc(-c3ccc(-n4ccn(C)c4=O)c(Cl)c3)c2O)cc1N1CCC2(CCCN2C(C)C)C1 (stereo not drawn) [Example 913, 1-(3-chloro-5′-fluoro-2′-hydroxy-3′-(5-(1-isopropyl-1,7-diazaspiro[4.4]nonan-7-yl)-6-methoxypyridin-3-yl)-[1,1′-biphenyl]-4-yl)-3-methyl-1H-imidazol-2(3H)-one] | 0.01 to 1 | 0.3 to 30 | – |
| Cn1ccn(-c2ccc(-c3cc(F)cc(-c4cnc(N)c(N5CCN(C(C)(C)C)CC5)c4)c3O)cc2Cl)c1=O [Example 914, 1-(3′-(6-amino-5-(4-(tert-butyl)piperazin-1-yl)pyridin-3-yl)-3-chloro-5′-fluoro-2′-hydroxy-[1,1′-biphenyl]-4-yl)-3-methyl-1H-imidazol-2(3H)-one] | 1 to 10 | 0.3 to 30 | – |
| Cn1ccn(-c2ccc(-c3cc(F)cc(-c4ccnc(N5CCS(=N)(=O)CC5)c4)c3O)cc2Cl)c1=O [Example 915, 1-(3-chloro-5′-fluoro-2′-hydroxy-3′-(2-(1-imino-1-oxidothiomorpholino)pyridin-4-yl)-[1,1′-biphenyl]-4-yl)-3-methyl-1H-imidazol-2(3H)-one] | 0.01 to 1 | 30 to 300 | – |
| Cc1cc(-c2ccc(-n3ccn(C)c3=O)c(Cl)c2)c(O)c(-c2cccc(N3CCN(C(C)(C)C)CC3)c2)n1 [Example 916, 1-(4-(2-(3-(4-(tert-Butyl)piperazin-1-yl)phenyl)-3-hydroxy-6-methylpyridin-4-yl)-2-chlorophenyl)-3-methyl-1H-imidazol-2(3H)-one] | 0.01 to 1 | 0.3 to 30 | – |
| Cc1cc(-c2cccc(N3CCN(C(C)(C)C)CC3)c2)c(O)c(-c2ccc(-n3ccn(C)c3=O)c(Cl)c2)n1 [Example 917, 1-(4-(4-(3-(4-(tert-Butyl)piperazin-1-yl)phenyl)-3-hydroxy-6-methylpyridin-2-yl)-2-chlorophenyl)-3-methyl-1H-imidazol-2(3H)-one] | 1 to 10 | 30 to 300 | – |
| CN1CCN(c2ccc(-c3cc(F)cc(-c4cccc(N5CCN(C(C)(C)C)CC5)c4)c3O)cc2Cl)C1=O [Example 918, 1-(3″-(4-(tert-butyl)piperazin-1-yl)-3-chloro-5′-fluoro-2′-hydroxy-[1,1′:3′,1″-terphenyl]-4-yl)-3-methylimidazolidin-2-one] | 1 to 10 | 0.3 to 30 | – |
| CC(=O)Nc1ccc(-c2cc(F)cc(-c3cccc(N4CCN(C(C)(C)C)CC4)c3)c2O)cc1Cl [Example 919, N-(3″-(4-(tert-butyl)piperazin-1-yl)-3-chloro-5′-fluoro-2′-hydroxy-[1,1′:3′,1″-terphenyl]-4-yl)acetamide] | 1 to 10 | 300 to 3000 | – |
| Cc1nc(-c2cccc(N3CCN(C(C)(C)C)CC3)c2)c(O)c(-c2ccc(-n3ccn(C)c3=O)c(Cl)c2)n1 [Example 920, 1-(4-{6-[3-(4-tert-Butyl-piperazin-1-yl)-phenyl]-5-hydroxy-2-methyl-pyrimidin-4-yl}-2-chloro-phenyl)-3-methyl-1,3-dihydro-imidazol-2-one] | > 100 | 30 to 300 | – |
| CNC(=O)Nc1ccc(-c2cc(F)cc(-c3cccc(N4CCN(C(C)(C)C)CC4)c3)c2O)cc1Cl [Example 921, 1-(3″-(4-(tert-Butyl)piperazin-1-yl)-3-chloro-5′-fluoro-2′-hydroxy-[1,1′:3′,1″-terphenyl]-4-yl)-3-methylurea] | 10 to 100 | 300 to 3000 | – |
| CN(C)c1ncc(-c2cc(F)cc(-c3ccc(-n4ccn(C)c4=O)c(Cl)c3)c2O)cc1N1CCN(C(C)(C)C)CC1 [Example 922, 1-(3′-(5-(4-(tert-Butyl)piperazin-1-yl)-6-(dimethylamino)pyridin-3-yl)-3-chloro-5′-fluoro-2′-hydroxy-[1,1′-biphenyl]-4-yl)-3-methyl-1H-imidazol-2(3H)-one] | 0.01 to 1 | 0.3 to 30 | – |
| CNc1ncc(-c2cc(F)cc(-c3ccc(-n4ccn(C)c4=O)c(Cl)c3)c2O)cc1N1CCN(C(C)(C)C)CC1 [Example 923, 1-(3′-(5-(4-(tert-Butyl)piperazin-1-yl)-6-(methylamino)pyridin-3-yl)-3-chloro-5′-fluoro-2′-hydroxy-[1,1′-biphenyl]-4-yl)-3-methyl-1H-imidazol-2(3H)-one] | 0.01 to 1 | 0.3 to 30 | – |
| CC(C)COc1cc(-c2cc(F)cc(-c3cccc(N4CCN(C(C)(C)C)CC4)c3)c2O)cc(Cl)c1-n1ccn(C)c1=O [Example 924, 1-(3″-(4-(tert-Butyl)piperazin-1-yl)-3-chloro-5′-fluoro-2′-hydroxy-5-isobutoxy-[1,1′:3′,1″-terphenyl]-4-yl)-3-methyl-1H-imidazol-2(3H)-one] | 10 to 100 | 30 to 300 | – |
| CCOc1cc(-c2cc(F)cc(-c3cccc(N4CCN(C(C)(C)C)CC4)c3)c2O)cc(Cl)c1-n1ccn(C)c1=O [Example 925, 1-(3″-(4-(tert-Butyl)piperazin-1-yl)-3-chloro-5-ethoxy-5′-fluoro-2′-hydroxy-[1,1′:3′,1″-terphenyl]-4-yl)-3-methyl-1H-imidazol-2(3H)-one] | 10 to 100 | 30 to 300 | – |
| [2H]C([2H])([2H])Oc1ncc(-c2cc(F)cc(-c3ccc(-n4ccn(C)c4=O)c(Cl)c3)c2O)cc1N1CCN(C(C)(C)C)CC1 [Example 926, 1-(3′-(5-(4-(tert-Butyl)piperazin-1-yl)-6-(methoxy-d3)pyridin-3-yl)-3-chloro-5′-fluoro-2′-hydroxy-[1,1′-biphenyl]-4-yl)-3-methyl-1,3-dihydro-2H-imidazol-2-one] | 0.01 to 1 | 0.3 to 30 | – |
| Cc1cc(-c2cc(F)cc(-c3cccc(N4CCN(C(C)(C)C)CC4)c3)c2O)cc(Cl)c1-n1ccn(C)c1=O [Example 927, 1-(3″-(4-(tert-butyl)piperazin-1-yl)-3-chloro-5′-fluoro-2′-hydroxy-5-methyl-[1,1′:3′,1″-terphenyl]-4-yl)-3-methyl-1H-imidazol-2(3H)-one] | 10 to 100 | 30 to 300 | – |
| CC(C)(C)N1CCN(c2cccc(-c3cc(F)cc(-c4ccc(-n5cc[nH]c5=O)c(Cl)c4)c3O)c2)CC1 [Example 928, 1-(3″-(4-(tert-butyl)piperazin-1-yl)-3-chloro-5′-fluoro-2′-hydroxy-[1,1′:3′,1″-terphenyl]-4-yl)-1H-imidazol-2(3H)-one] | 1 to 10 | 30 to 300 | – |
| CCc1cc(-c2cc(F)cc(-c3cccc(N4CCN(C(C)(C)C)CC4)c3)c2O)cc(Cl)c1-n1ccn(C)c1=O [Example 929, 1-(3″-(4-(tert-butyl)piperazin-1-yl)-3-chloro-5-ethyl-5′-fluoro-2′-hydroxy-[1,1′:3′,1″-terphenyl]-4-yl)-3-methyl-1H-imidazol-2(3H)-one] | > 100 | 300 to 3000 | – |
| Cn1ccn(-c2c(Cl)cc(-c3cc(F)cc(-c4cccc(N5CCN(C(C)(C)C)CC5)c4)c3O)cc2OC2CC2)c1=O [Example 930, 1-(3″-(4-(tert-butyl)piperazin-1-yl)-3-chloro-5-cyclopropoxy-5′-fluoro-2′-hydroxy-[1,1′:3′,1″-terphenyl]-4-yl)-3-methyl-1H-imidazol-2(3H)-one] | > 100 | 300 to 3000 | – |
| Cn1ccn(-c2c(OC3CC3)ccc(-c3cc(F)cc(-c4cccc(N5CCN(C(C)(C)C)CC5)c4)c3O)c2Cl)c1=O [Example 931, 1-(3″-(4-(tert-butyl)piperazin-1-yl)-2-chloro-4-cyclopropoxy-5′-fluoro-2′-hydroxy-[1,1′:3′,1″-terphenyl]-3-yl)-3-methyl-1,3-dihydro-2H-imidazol-2-one] | > 100 | 300 to 3000 | – |
| CC(C)c1cc(-c2cc(F)cc(-c3cccc(N4CCN(C(C)(C)C)CC4)c3)c2O)cc(Cl)c1-n1ccn(C)c1=O [Example 932, 1-(3″-(4-(tert-butyl)piperazin-1-yl)-3-chloro-5′-fluoro-2′-hydroxy-5-isopropyl-[1,1′:3′,1″-terphenyl]-4-yl)-3-methyl-1H-imidazol-2(3H)-one] | > 100 | 300 to 3000 | – |
| Cn1ccn(-c2c(Cl)cc(-c3cc(F)cc(-c4cccc(N5CCN(C(C)(C)C)CC5)c4)c3O)cc2C2CC2)c1=O [Example 933, 1-(3″-(4-(tert-butyl)piperazin-1-yl)-3-chloro-5-cyclopropyl-5′-fluoro-2′-hydroxy-[1,1′:3′,1″-terphenyl]-4-yl)-3-methyl-1H-imidazol-2(3H)-one] | 10 to 100 | 30 to 300 | – |
| CC(C)c1cc(-c2cc(F)cc(-c3cccc(N4CCN(C(C)(C)C)CC4)c3)c2O)cc(Cl)c1-n1ccn(C)c1=O [Example 934, (R)-1-(3″-(4-(tert-butyl)piperazin-1-yl)-3-chloro-5′-fluoro-2′-hydroxy-5-isopropyl-[1,1′:3′,1″-terphenyl]-4-yl)-3-methyl-1,3-dihydro-2H-imidazol-2-one] | > 100 | – | 300 to 3000 |
| CC(C)c1cc(-c2cc(F)cc(-c3cccc(N4CCN(C(C)(C)C)CC4)c3)c2O)cc(Cl)c1-n1ccn(C)c1=O [Example 935, (S)-1-(3″-(4-(tert-butyl)piperazin-1-yl)-3-chloro-5′-fluoro-2′-hydroxy-5-isopropyl-[1,1′:3′,1″-terphenyl]-4-yl)-3-methyl-1,3-dihydro-2H-imidazol-2-one] | > 100 | – | 300 to 3000 |
| Cc1nc(-c2cc(F)cc(-c3cccc(N4CCN(C(C)(C)C)CC4)c3)c2O)ccc1-n1ccn(C)c1=O [Example 936, 1-(6-(3′-(4-(tert-butyl)piperazin-1-yl)-5-fluoro-2-hydroxy-[1,1′-biphenyl]-3-yl)-2-methylpyridin-3-yl)-3-methyl-1H-imidazol-2(3H)-one] | > 100 | 300 to 3000 | – |
